# Measured values as given in patent US20230125667A1, “NOVEL TDZD ANALOGS AS AGENTS THAT DELAY, PREVENT, OR REVERSE AGE-ASSOCIATED DISEASES AND AS ANTI-CANCER AND ANTILEUKEMIC AGENTS” (United States Government as represented by the Department …, priority 2020, published 2023).
# How the values were obtained:
# SK-MEL-28 = assay: NCI-60 growth inhibition: SK-MEL-28 (Melanoma); type: cell-based, human; conditions: Homo sapiens
# MALME-3M = assay: NCI-60 growth inhibition: MALME-3M (Melanoma); type: cell-based, human; conditions: Homo sapiens
# T-47D = assay: NCI-60 growth inhibition: T-47D (Breast Cancer); type: cell-based, human; conditions: Homo sapiens, T47D
# SW-620 = assay: NCI-60 growth inhibition: SW-620 (Colon Cancer); type: cell-based, human; conditions: Homo sapiens
# MDA-MB-435 = assay: NCI-60 growth inhibition: MDA-MB-435 (Melanoma); type: cell-based, human; conditions: Homo sapiens
# A498 = assay: NCI-60 growth inhibition: A498 (Renal Cancer); type: cell-based, human; conditions: Homo sapiens
# IGROV1 = assay: NCI-60 growth inhibition: IGROV1 (Ovarian Cancer); type: cell-based, human; conditions: Homo sapiens, IGROV-1
# UO-31 = assay: NCI-60 growth inhibition: UO-31 (Renal Cancer); type: cell-based, human; conditions: Homo sapiens
# OVCAR-8 = assay: NCI-60 growth inhibition: OVCAR-8 (Ovarian Cancer); type: cell-based, human; conditions: Homo sapiens
# PC-3 = assay: NCI-60 growth inhibition: PC-3 (Prostate Cancer); type: cell-based, human; conditions: Homo sapiens
# MDA-MB-468 = assay: NCI-60 growth inhibition: MDA-MB-468 (Breast Cancer); type: cell-based, human; conditions: Homo sapiens; MDA-MB-468 (Breast Cancer); read-out: GI50
# MCF7 = assay: NCI-60 growth inhibition: MCF7 (Breast Cancer); type: cell-based, human; conditions: Homo sapiens
# UACC-62 = assay: NCI-60 growth inhibition: UACC-62 (Melanoma); type: cell-based, human; conditions: Homo sapiens
# RPMI-8226 = assay: NCI-60 growth inhibition: RPMI-8226 (Leukemia); type: cell-based, human; conditions: Homo sapiens
# [1] = tested on: MV4-11 cell line (myelomonocytic leukemia); conditions: MV4-11 cells
# NCI-H23 = assay: NCI-60 growth inhibition: NCI-H23 (Non-Small-Cell Lung Cancer); type: cell-based, human; conditions: Homo sapiens
# HS 578T = assay: NCI-60 growth inhibition: HS 578T (Breast Cancer); type: cell-based, human; conditions: Homo sapiens
# SK-MEL-5 = assay: NCI-60 growth inhibition: SK-MEL-5 (Melanoma); type: cell-based, human; conditions: Homo sapiens
# SNB-75 = assay: NCI-60 growth inhibition: SNB-75 (CNS Cancer); type: cell-based, human; conditions: Homo sapiens
# SF-539 = assay: NCI-60 growth inhibition: SF-539 (CNS Cancer); type: cell-based, human; conditions: Homo sapiens
# OVCAR-5 = assay: NCI-60 growth inhibition: OVCAR-5 (Ovarian Cancer); type: cell-based, human; conditions: Homo sapiens
# M14 = assay: NCI-60 growth inhibition: M14 (Melanoma); type: cell-based, human; conditions: Homo sapiens
# CCRF-CEM = assay: NCI-60 growth inhibition: CCRF-CEM (Leukemia); type: cell-based, human; conditions: Homo sapiens
# NCI-H460 = assay: NCI-60 growth inhibition: NCI-H460 (Non-Small-Cell Lung Cancer); type: cell-based, human; conditions: Homo sapiens
# OVCAR-4 = assay: NCI-60 growth inhibition: OVCAR-4 (Ovarian Cancer); type: cell-based, human; conditions: Homo sapiens
# U251 = assay: NCI-60 growth inhibition: U251 (CNS Cancer); type: cell-based, human; conditions: Homo sapiens, U-251
# OVCAR-3 = assay: NCI-60 growth inhibition: OVCAR-3 (Ovarian Cancer); type: cell-based, human; conditions: Homo sapiens
# DU-145 = assay: NCI-60 growth inhibition: DU-145 (Prostate Cancer); type: cell-based, human; conditions: Homo sapiens
# EKVX = assay: NCI-60 growth inhibition: EKVX (Non-Small-Cell Lung Cancer); type: cell-based, human; conditions: Homo sapiens
# MOLT-4 = assay: NCI-60 growth inhibition: MOLT-4 (Leukemia); type: cell-based, human; conditions: Homo sapiens
# LOX IMVI = assay: NCI-60 growth inhibition: LOX IMVI (Melanoma); type: cell-based, human; conditions: Homo sapiens
# SF-268 = assay: NCI-60 growth inhibition: SF-268 (CNS Cancer); type: cell-based, human; conditions: Homo sapiens
# HCT-116 = assay: NCI-60 growth inhibition: HCT-116 (Colon Cancer); conditions: Homo sapiens, HCT-116
# ACHN = assay: NCI-60 growth inhibition: ACHN (Renal Cancer); type: cell-based, human; conditions: Homo sapiens
# UACC-257 = assay: NCI-60 growth inhibition: UACC-257 (Melanoma); type: cell-based, human; conditions: Homo sapiens
# HT29 = assay: NCI-60 growth inhibition: HT29 (Colon Cancer); type: cell-based, human; conditions: Homo sapiens, HT-29
# CAKI-1 = assay: NCI-60 growth inhibition: CAKI-1 (Renal Cancer); type: cell-based, human; conditions: Homo sapiens
# NCI-H522 = assay: NCI-60 growth inhibition: NCI-H522 (Non-Small-Cell Lung Cancer); conditions: Homo sapiens, NCI-H522
# SR = assay: NCI-60 growth inhibition: SR (Leukemia); type: cell-based, human; conditions: Homo sapiens
# COLO 205 = assay: NCI-60 growth inhibition: COLO 205 (Colon Cancer); type: cell-based, human; conditions: Homo sapiens
# SN12C = assay: NCI-60 growth inhibition: SN12C (Renal Cancer); type: cell-based, human; conditions: Homo sapiens
# SK-MEL-2 = assay: NCI-60 growth inhibition: SK-MEL-2 (Melanoma); type: cell-based, human; conditions: Homo sapiens
# HOP-92 = assay: NCI-60 growth inhibition: HOP-92 (Non-Small-Cell Lung Cancer); type: cell-based, human; conditions: Homo sapiens
# HL-60(TB) = assay: NCI-60 growth inhibition: HL-60(TB) (Leukemia); type: cell-based, human; conditions: Homo sapiens; HL-60(TB) (Leukemia); read-out: GI50
# 786-0 = assay: NCI-60 growth inhibition: 786-0 (Renal Cancer); type: cell-based, human; conditions: Homo sapiens
# MDA-MB-231/ATCC = assay: NCI-60 growth inhibition: MDA-MB-231/ATCC (Breast Cancer); type: cell-based, human; conditions: Homo sapiens
# HCT-15 = assay: NCI-60 growth inhibition: HCT-15 (Colon Cancer); type: cell-based, human; conditions: Homo sapiens
# TK-10 = assay: NCI-60 growth inhibition: TK-10 (Renal Cancer); type: cell-based, human; conditions: Homo sapiens
# BT-549 = assay: NCI-60 growth inhibition: BT-549 (Breast Cancer); type: cell-based, human; conditions: Homo sapiens
# SNB-19 = assay: NCI-60 growth inhibition: SNB-19 (CNS Cancer); type: cell-based, human; conditions: Homo sapiens
structure (smiles),measurement,setting,value
C=C1C(=O)O[C@H]2[C@H]1CC/C(COC(=O)NCc1ccc(Cn3c(=O)sn(-c4ccc(OC)cc4)c3=O)cc1)=C\CC[C@@]1(C)O[C@@H]21 [BSK-271],GI50,SK-MEL-28,1.97 µM
same,GI50,MALME-3M,1.81 µM
same,GI50,T-47D,1.86 µM
same,GI50,SW-620,1.77 µM
same,GI50,MDA-MB-435,1.83 µM
same,GI50,A498,5.65 µM
same,GI50,IGROV1,2.85 µM
same,GI50,UO-31,1.56 µM
same,GI50,OVCAR-8,2.37 µM
same,GI50,PC-3,2.19 µM
same,GI50,MDA-MB-468,1.53 µM
same,GI50,MCF7,1.77 µM
same,GI50,UACC-62,1.86 µM
same,GI50,RPMI-8226,2.01 µM
same,"LD50, 7AAD (μM) 24 h","[1]; 24 h, 7AAD, MMB-TDZD analogs (Table 2)",1.74 µM
same,"LD50, Alamar blue (μM) 24 h","[1]; 24 h, Alamar blue, MMB-TDZD analogs (Table 2)",1.20 µM
same,"LD50, YOPRO (μM) 24 h","[1]; 24 h, YOPRO, MMB-TDZD analogs (Table 2)",2.07 µM
same,LD50,[1]; values in text,680 nM
same,GI50,NCI-H23,2.97 µM
same,GI50,HS 578T,2.92 µM
same,GI50,SK-MEL-5,12 µM
same,GI50,SNB-75,3.44 µM
same,GI50,SF-539,1.96 µM
same,GI50,OVCAR-5,2.06 µM
same,GI50,M14,2.19 µM
same,GI50,CCRF-CEM,0.56 µM
same,GI50,NCI-H460,3.7 µM
same,GI50,OVCAR-4,1.64 µM
same,GI50,U251,4.11 µM
same,GI50,OVCAR-3,1.61 µM
same,GI50,DU-145,1.81 µM
same,GI50,EKVX,3.5 µM
same,GI50,MOLT-4,1.93 µM
same,GI50,LOX IMVI,1.73 µM
same,GI50,SF-268,3.14 µM
same,GI50,HCT-116,1.93 µM
same,GI50,ACHN,1.73 µM
same,GI50,UACC-257,2.03 µM
same,GI50,HT29,1.96 µM
same,GI50,CAKI-1,2.34 µM
same,GI50,NCI-H522,1.67 µM
same,GI50,SR,0.53 µM
same,GI50,COLO 205,1.85 µM
same,GI50,SN12C,2.14 µM
same,GI50,SK-MEL-2,3.19 µM
same,GI50,HOP-92,1.61 µM
same,GI50,HL-60(TB),2.12 µM
same,GI50,786-0,2.05 µM
same,GI50,MDA-MB-231/ATCC,1.97 µM
same,GI50,HCT-15,1.68 µM
same,GI50,TK-10,1.91 µM
same,GI50,BT-549,4.37 µM
same,GI50,SNB-19,11.7 µM
